Molecular target: T1, SENP1 (Homo sapiens, UniProt Q9P0U3)
T1 sequence (Q9P0U3 1-644): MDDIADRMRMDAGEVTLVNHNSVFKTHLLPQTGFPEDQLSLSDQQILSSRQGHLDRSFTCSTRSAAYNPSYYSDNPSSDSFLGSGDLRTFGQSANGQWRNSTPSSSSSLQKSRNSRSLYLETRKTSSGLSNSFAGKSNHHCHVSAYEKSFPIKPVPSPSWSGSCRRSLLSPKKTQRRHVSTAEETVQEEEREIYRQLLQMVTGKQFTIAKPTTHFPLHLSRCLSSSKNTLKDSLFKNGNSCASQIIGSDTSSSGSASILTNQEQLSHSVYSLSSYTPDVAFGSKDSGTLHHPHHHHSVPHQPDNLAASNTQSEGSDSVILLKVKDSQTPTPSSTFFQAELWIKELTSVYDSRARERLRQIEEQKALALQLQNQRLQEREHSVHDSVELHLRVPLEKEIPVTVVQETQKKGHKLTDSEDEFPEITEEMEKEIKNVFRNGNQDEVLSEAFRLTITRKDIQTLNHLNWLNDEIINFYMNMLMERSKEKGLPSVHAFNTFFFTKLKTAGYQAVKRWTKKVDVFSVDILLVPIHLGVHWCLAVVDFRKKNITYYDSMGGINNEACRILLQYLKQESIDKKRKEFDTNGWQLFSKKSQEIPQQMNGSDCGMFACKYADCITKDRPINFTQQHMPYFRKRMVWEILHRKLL
Assay: In vitro (cell-free) thermal shift assay
Format: binding
Parameters: made in house
Conditions: purified SENP1, 4 h, higher temperatures
Experimental: FIGURE 2 UA directly interacts with Sentrin‐specific protease 1 (SENP1). (A) Cellular thermal shift assay to examine the interaction of UA with SENP1. IGROV1 CR cells pretreated with MG132 (10 μM, 1 h) were incubated with DMSO or UA for 4 h before being shifted to indicated temperatures. SENP1 stability was analyzed by using Western blot against SENP1 antibody. Right panel, quantification of non‐denatured SENP1 fraction shown in the left panel. (B) Cell‐free thermal shift assay to examine interactions of UA with SENP1. Purified SENP1 proteins were incubated with DMSO or UA for 4 h before being shifted to the indicated temperatures. SENP1 stability was analyzed by using Western blot against SENP1 antibody. Right panel, quantification of non‐denatured SENP1 fraction shown in the left panel. (C) The predicted docking pose of UA (C: green; H: white; O: red) at the hydrophobic catalytic cleft of SENP1 (C: salmon; H: white; O: red; N: blue). Key amino acid residues were highlighted. […] Stability of SENP1(C603A) was analyzed by using Western blot against SENP1 antibody. […] Left; Ultra‐high performance liquid‐chromatography‐MS/MS analyses of associated UA in indicated samples, right; quantification of data shown in left (the binding affinity of UA with SENP1‐C603A was normalized as 1). […]
The qu anti ficatio n of immunohistochemical sta in ing wa s scored blindly at lea st by two independent obser vers. […]

SMILES: C[C@H]1[C@H](C)CC[C@]2(C(=O)O)CC[C@]3(C)C(=CC[C@@H]4[C@@]5(C)CC[C@H](O)C(C)(C)[C@@H]5CC[C@]43C)[C@H]12 [UA, ursolic acid, reference compound]
- thermal stabilization of recombinant SENP1 in vitro: stabilized

— PMC8710297, “Identification of potent SENP1 inhibitors that inactivate SENP1/JAK2/STAT signaling pathway and overcome platinum drug resistance in ovarian cancer” (Clinical and Translational Medicine, 2021)
